The target of this assay is T1, EP1 receptors (Homo sapiens, UniProt P34995).
T1 sequence (P34995 1-402): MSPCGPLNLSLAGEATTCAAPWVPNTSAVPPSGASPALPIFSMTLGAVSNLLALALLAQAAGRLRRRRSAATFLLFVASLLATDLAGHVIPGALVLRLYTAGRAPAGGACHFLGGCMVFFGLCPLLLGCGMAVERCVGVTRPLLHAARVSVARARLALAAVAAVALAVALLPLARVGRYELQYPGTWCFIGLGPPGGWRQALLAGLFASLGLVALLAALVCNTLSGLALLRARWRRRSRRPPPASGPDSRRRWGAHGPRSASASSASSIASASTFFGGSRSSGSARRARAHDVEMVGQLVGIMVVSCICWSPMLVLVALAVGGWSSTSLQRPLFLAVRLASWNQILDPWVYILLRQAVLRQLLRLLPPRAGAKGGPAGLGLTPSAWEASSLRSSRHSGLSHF
The experiment in a line: Binding assay for the human prostanoid EP1 receptor (competition with [3H]-PGE2). Also noted: expressed in transfected cells; host or cells: CHO-K1 cells, membrane fraction. To be noted: [3H]-PGE2 competition; averages of a number of experiments; read-out: pIC50 value, binding assay for the human prostanoid EP1 receptor (converted). The protocol: Competition assay using [^3H]-PGE2.
Compound potencies are determined using a radioligand binding assay. In this assay compound potencies are determined from their ability to compete with tritiated prostaglandin E2 ([^3H]-PGE2) for binding to the human EP1 receptor.
This assay utilises Chinese hamster ovary-K1 (CHO-K1) cells into which a stable vector containing the EP1 cDNA has previously been transfected. Cells are cultured in suitable flasks containing culture medium such as DMEM:F-12 supplemented with 10% v/v foetal calf serum, 2 mM L-glutamine, 0.25 mg/ml geneticin, 10 μg/ml puromycin and 10 μM indomethacin.
Cells are detached from the culture flasks by incubation in calcium and magnesium free phosphate buffered saline containing 1 mM disodium ethylenediaminetetraacetic acid (Na2EDTA) and 10 μM indomethacin for 5 min. The cells are isolated by centrifugation at 250×g for 5mins and suspended in an ice cold buffer such as 50 mM Tris, 1 mM Na2EDTA, 140 mM NaCl, 10 μM indomethacin (pH 7.4). The cells are homogenised using a Polytron tissue disrupter (2×10 s burst at full setting), centrifuged at 48,000×g for 20mins and the pellet containing the membrane fraction is washed (optional) three times by suspension and centrifugation at 48,000×g for 20mins. The final membrane pellet is suspended in an assay buffer such as 10 mM 2-[N-morpholino]ethanesulphonic acid, 1 mM Na2EDTA, 10 mM MgCl2 (pH 6). Aliquots are frozen at […] until required.
For the binding assay the cell membranes, competing compounds and [^3H]-PGE2 (3 nM final assay concentration) are incubated in a final volume of 100 μl for 30 min at 30° C. All reagents are prepared in assay buffer. Reactions are terminated by rapid vacuum filtration over GF/B filters using a Brandell cell harvester. The filters are washed with ice cold assay buffer, dried and the radioactivity retained on the filters is measured by liquid scintillation counting in Packard TopCount scintillation counter.
The data are analysed using non linear curve fitting techniques to determine the concentration of compound producing 50% inhibition of specific binding (IC50).
Take `O=C(O)c1csc(Cc2cc(C(F)(F)F)ccc2OCc2ccccc2F)n1` [Example 29, Sodium 2-{[2-{[(2-fluorophenyl)methyl]oxy}-5-(trifluoromethyl)phenyl]methyl}-1,3-thiazole-4-carboxylate]: the IC50 was at most 31.6 nM.

Regarding `O=C(O)c1csc(Cc2cc(C(F)(F)F)ccc2OCc2ccccc2Cl)n1` [Example 30, Sodium 2-{[2-{[(2-chlorophenyl)methyl]oxy}-5-(trifluoromethyl)phenyl]methyl}-1,3-thiazole-4-carboxylate], the IC50 was at most 31.6 nM.

On to `O=C(O)c1csc(Cc2cc(C(F)(F)F)ccc2OCc2ccc(Br)cc2)n1` [Example 31, Sodium 2-{[2-{[(4-bromophenyl)methyl]oxy}-5-(trifluoromethyl)phenyl]methyl}-1,3-thiazole-4-carboxylate], for which the IC50 is at most 31.6 nM.

Take `O=C(O)c1csc(Cc2cc(C(F)(F)F)ccc2OCc2ccc(Cl)cc2F)n1` [Example 32, Sodium 2-{[2-{[(4-chloro-2-fluorophenyl)methyl]oxy}-5-(trifluoromethyl)phenyl]methyl}-1,3-thiazole-4-carboxylate]: the IC50 was at most 31.6 nM.

As for `O=C(O)c1csc(Cc2cc(C(F)(F)F)ccc2OCc2ccc(F)cc2Cl)n1` [Example 33, Sodium 2-{[2-{[(2-chloro-4-fluorophenyl)methyl]oxy}-5-(trifluoromethyl)phenyl]methyl}-1,3-thiazole-4-carboxylate], the IC50 was at most 31.6 nM.

For the compound `O=C(O)c1csc(Cc2cc(C(F)(F)F)ccc2OCc2cccc(F)c2F)n1` [Example 34, Sodium 2-{[2-{[(2,3-difluorophenyl)methyl]oxy}-5-(trifluoromethyl)phenyl]methyl}-1,3-thiazole-4-carboxylate], the IC50 is at most 31.6 nM.

For the compound `O=C(O)c1csc(Cc2cc(C(F)(F)F)ccc2OCc2ccc(F)c(F)c2F)n1` [Example 35, Sodium 2-{[5-(trifluoromethyl)-2-{[(2,3,4-trifluorophenyl)methyl]oxy}phenyl)methyl]-1,3-thiazole-4-carboxylate], the IC50 was at most 1000 nM.

Take `O=C(O)c1csc(Cc2cc(C(F)(F)F)ccc2OCc2cc(F)c(F)cc2F)n1` [Example 36, Sodium 2-[(5-(trifluoromethyl)-2-{[(2,4,5-trifluorphenyl)methyl]oxy}phenyl)methyl]-1,3-thiazole-4-carboxylate]: the IC50 was at most 31.6 nM.

`CCCOc1ccc(C(F)(F)F)cc1Cc1nc(C(=O)O)cs1` [Example 37, Sodium 2-{[2-(propyloxy)-5-(trifluoromethyl)phenyl]methyl}-1,3-thiazole-4-carboxylate]: the IC50 was at most 31.6 nM.

As for `CCCCOc1ccc(C(F)(F)F)cc1Cc1nc(C(=O)O)cs1` [Example 38, Sodium 2-{[2-(butyloxy)-5-(trifluoromethyl)phenyl]methyl}-1,3-thiazole-4-carboxylate], the IC50 is at most 1000 nM.

`O=C(O)c1csc(Cc2cc(C(F)(F)F)ccc2OCC2CC2)n1` [Example 39, Sodium 2-{[2-[(cyclopropylmethyl)oxy]-5-(trifluoromethyl)phenyl]methyl}-1,3-thiazole-4-carboxylate]: the IC50 is at most 31.6 nM.

Regarding `CCCCCOc1ccc(C(F)(F)F)cc1Cc1nc(C(=O)O)cs1` [Example 40, Sodium 2-{[2-(pentyloxy)-5-(trifluoromethyl)phenyl]methyl}-1,3-thiazole-4-carboxylate], the IC50 is at most 1000 nM.

As for `CC(C)CCOc1ccc(C(F)(F)F)cc1Cc1nc(C(=O)O)cs1` [Example 41, Sodium 2-{[2-[(3-methylbutyl)oxy]-5-(trifluoromethyl)phenyl]methyl}-1,3-thiazole-4-carboxylate], the IC50 was at most 31.6 nM.

As for `O=C(O)c1csc(Cc2cc(C(F)(F)F)ccc2OCC2CCCCC2)n1` [Example 42, Sodium 2-{[2-[(cyclohexylmethyl)oxy]-5-(trifluoromethyl)phenyl]methyl}-1,3-thiazole-4-carboxylate], the IC50 is at most 1000 nM.

For the compound `O=C(O)c1csc(Cc2cc(C(F)(F)F)ccc2OCC2CCC2)n1` [Example 43, Sodium 2-{[2-[(cyclobutylmethyl)oxy]-5-(trifluoromethyl)phenyl]methyl}-1,3-thiazole-4-carboxylate], the IC50 was at most 31.6 nM.

As to `CC(C)COc1ccc(C(F)(F)F)cc1Cc1nc(C(=O)O)cs1` [Example 44, Sodium 2-{[2-[(2-methylpropyl)oxy]-5-(trifluoromethyl)phenyl]methyl}-1,3-thiazole-4-carboxylate], the IC50 is at most 31.6 nM.

Take `O=C(O)c1csc(Cc2cc(C(F)(F)F)ccc2OCC2CCCC2)n1` [Example 45, Sodium 2-{[2-[(cyclopentylmethyl)oxy]-5-(trifluoromethyl)phenyl]methyl}-1,3-thiazole-4-carboxylate]: the IC50 is at most 31.6 nM.

Take `O=C(O)c1csc(Cc2cc(Br)ccc2OCc2ccccc2F)n1` [Example 51, Sodium 2-[(5-bromo-2-{[(2-fluorophenyl)methyl]oxy}phenyl)methyl]-1,3-thiazole-4-carboxylate]: the IC50 is at most 31.6 nM.

As for `O=C(O)c1csc(Cc2cc(Br)ccc2OCc2ccc(F)cc2)n1` [Example 52, Sodium 2-[(5-bromo-2-{[(4-fluorophenyl)methyl]oxy}phenyl)methyl]-1,3-thiazole-4-carboxylate], the IC50 is at most 31.6 nM.

Regarding `O=C(O)c1csc(Cc2cc(Br)ccc2OCc2ccc(F)cc2F)n1` [Example 53, Sodium 2-[(5-bromo-2-{[(2,4-difluorophenyl)methyl]oxy}phenyl)methyl]-1,3-thiazole-4-carboxylate], the IC50 was at most 31.6 nM.

Regarding `O=C(O)c1csc(Cc2cc(Br)ccc2OCc2ccc(Br)cc2)n1` [Example 54, Sodium 2-[(5-bromo-2-{[(4-bromophenyl)methyl]oxy}phenyl)methyl]-1,3-thiazole-4-carboxylate], the IC50 is at most 31.6 nM.

Consider `O=C(O)c1csc(Cc2cc(Br)ccc2OCc2c(F)cc(F)cc2F)n1` [Example 55, Sodium 2-[(5-bromo-2-{[(2,4,6-trifluorophenyl)methyl]oxy}phenyl)methyl]-1,3-thiazole-4-carboxylate], for which the IC50 was at most 1000 nM.

Consider `O=C(O)c1csc(Cc2cc(Br)ccc2OCc2ccc(Cl)cc2)n1` [Example 56, Sodium 2-[(5-bromo-2-{[(4-chlorophenyl)methyl]oxy}phenyl)methyl]-1,3-thiazole-4-carboxylate], for which the IC50 was at most 31.6 nM.

Consider `O=C(O)c1csc(Cc2cc(Br)ccc2OCc2ccccc2)n1` [Example 57, Sodium 2-({5-bromo-2-[(phenylmethyl)oxy]phenyl}methyl)-1,3-thiazole-4-carboxylate], for which the IC50 is at most 31.6 nM.

`O=C(O)c1csc(Cc2cc(Br)ccc2OCc2cc(F)c(F)cc2F)n1` [Example 58, Sodium 2-[(5-bromo-2-{[(2,4,5-trifluorophenyl)methyl]oxy}phenyl)methyl]-1,3-thiazole-4-carboxylate]: the IC50 was at most 31.6 nM.

`O=C(O)c1csc(Cc2cc(Br)ccc2OCc2c(F)ccc(F)c2F)n1` [Example 59, Sodium 2-[(5-bromo-2-{[(2,3,6-trifluorophenyl)methyl]oxy}phenyl)methyl]-1,3-thiazole-4-carboxylate]: the IC50 was at most 31.6 nM.

Take `O=C(O)c1csc(Cc2cc(Br)ccc2OCc2ccc(Cl)cc2F)n1` [Example 60, Sodium 2-[(5-bromo-2-{[(4-chloro-2-fluorophenyl)methyl]oxy}phenyl)methyl]-1,3-thiazole-4-carboxylate]: the IC50 is at most 31.6 nM.

For `O=C(O)c1csc(Cc2cc(Br)ccc2OCc2ccc(F)cc2Cl)n1` [Example 61, Sodium 2-[(5-bromo-2-{[(2-chloro-4-fluorophenyl)methyl]oxy}phenyl)methyl]-1,3-thiazole-4-carboxylate], the IC50 was at most 31.6 nM.

With `O=C(O)Cc1csc(-c2cc(Cl)ccc2OCc2ccccc2F)n1` [Example 62, Sodium [2-(5-chloro-2-{[(2-fluorophenyl)methyl]oxy}phenyl)-1,3-thiazol-4-yl]acetate], the IC50 was at most 1000 nM.

For `O=C(O)Cc1csc(-c2cc(Cl)ccc2OCc2ccc(F)cc2F)n1` [Example 63, Sodium [2-(5-chloro-2-{[(2,4-difluorophenyl)methyl]oxy}phenyl)-1,3-thiazol-4-yl]acetate], the IC50 is at most 1000 nM.

These data come from patent publication US20080207708A1, “Oxazole and Thiazole Compounds and Their Use in the Treatment of Pge2 Mediated Disorders” (GLAXO GROUP LIMITED, priority 2005, published 2008).
